Laboratory results published in patent US7960556B2, “Thiadiazole derivatives for the treatment of neuro-degenerative diseases” (NV reMYND, priority 2006, dated 2011).

Test system: α-synuclein cytotoxicity in M17-SYNwt cells
Assay: α-synuclein cytotoxicity assay: LDH leakage from paraquat-treated M17-SYNwt neuroblastoma cells;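 note: paraquat at 32 mM co-added with compound, 40 h exposure, LDH activity released into the culture medium measured, references are DMSO-only cells and paraquat plus DMSO cells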
Settings: Homo sapiens, Neuroblastoma cell; for Emax: read-out: % Inhib.

Row | Compound | EC50 [µM] | Emax [%]
1 | O=C(c1cccc(F)c1)N1CCN(c2nc(Cc3ccc(Cl)cc3)ns2)CC1 [compound 157, 1-(3-fluorobenzoyl)-4-[3-(4-chlorobenzyl)-1,2,4-thiadiazol-5-yl]piperazine] | 1.7 | 70
2 | CC1CN(c2nc(Cc3ccc(F)cc3)ns2)CCN1C(=O)Nc1ccccc1C(F)(F)F (stereo not drawn) [compound 18, N-(2-trifluoromethylphenyl)-4-[3-(4-fluorobenzyl)-1,2,4-thiadiazol-5-yl]-2-methylpiperazine-1-carboxamide] | – | 41
3 | Cc1cccc(C)c1NC(=O)N1CCN(c2nc(Cc3ccc(F)cc3)ns2)CC1 [compound 24, N-(2,6-dimethylphenyl)-4-[3-(4-fluorobenzyl)-1,2,4-thiadiazol-5-yl]piperazine-1-carboxamide] | 1.2 | 124
4 | CC(C)(C)c1ccc(S(=O)(=O)N2CCN(c3nc(Cc4ccc(F)cc4)ns3)CC2)cc1 [compound 30, 1-[4-tert-butylphenylsulfonyl]-4-[3-(4-fluorobenzyl)-1,2,4-thiadiazol-5-yl]piperazine] | – | 51
5 | COc1ccc(S(=O)(=O)N2CCN(c3nc(Cc4ccccc4F)ns3)CC2)cc1 [compound 194, 1-[4-methoxyphenylsulfonyl]-4-[3-(2-fluoro-benzyl)-1,2,4-thiadiazol-5-yl]piperazine] | 0.0027 | 102
6 | Cc1ccc(Cc2nsc(N3CCN(S(=O)(=O)c4ccc([N+](=O)[O-])cc4)C(C)C3)n2)cc1 (stereo not drawn) [compound 71, 1-[4-nitrophenylsulfonyl]-4-[3-(4-methylbenzyl)-1,2,4-thiadiazol-5-yl]-2-methylpiperazine] | – | 33
7 | COc1ccc(CC(=O)N2CCN(c3nc(Cc4ccc(F)cc4)ns3)CC2C)cc1 (stereo not drawn) [compound 4, 1-(4-methoxyphenylacetyl)-4-[3-(4-fluorobenzyl)-1,2,4-thiadiazol-5-yl]-2-methylpiperazine] | 0.82 | 56
8 | CC(=O)Nc1ccc(S(=O)(=O)N2CCN(c3nc(Cc4ccc(C)cc4)ns3)CC2C)cc1 (stereo not drawn) [compound 48, 1-[4-acetamidophenylsulfonyl]-4-[3-(4-methylbenzyl)-1,2,4-thiadiazol-5-yl]-2-methylpiperazine] | 0.00844 | 91
9 | O=C(Cc1ccc(F)cc1)NCCN1CCN(c2nc(Cc3ccc(F)cc3)ns2)CC1 [compound 107, 2-(4-fluorophenyl)-N-{2-[4-[3-(4-fluorobenzyl)-1,2,4-thiadiazol-5-yl]piperazin-1-yl]ethyl}acetamide] | 0.26 | 80
10 | Cc1cccc(C)c1NC(=O)N1CCN(c2nc(Cc3ccc(F)cc3)ns2)CC1C (stereo not drawn) [compound 19, N-(2,6-dimethylphenyl)-4-[3-(4-fluorobenzyl)-1,2,4-thiadiazol-5-yl]-2-methylpiperazine-1-carboxamide] | 0.2 | 95
11 | COc1cccc(Cc2nsc(N3CCN(C(=O)c4ccc(C(F)(F)F)cc4)C(C)C3)n2)c1 (stereo not drawn) [compound 168, 1-(4-trifluoromethylbenzoyl)-4-[3-(3-methoxybenzyl)-1,2,4-thiadiazol-5-yl]-2-methylpiperazine] | – | 91
12 | O=C(Nc1ccccc1F)N1CCN(c2nc(Cc3ccc(F)cc3)ns2)CC1 [compound 16, N-(2-fluorophenyl)-4-[3-(4-fluorobenzyl)-1,2,4-thiadiazol-5-yl]piperazine-1-carboxamide] | 5.68 | 72
13 | CC1CN(c2nc(Cc3ccccc3)ns2)CCN1C(=O)c1cccc(F)c1 (stereo not drawn) [compound 150, 1-(3-fluorobenzoyl)-4-[3-benzyl-1,2,4-thiadiazol-5-yl]-2-methylpiperazine] | 1.14 | 99
14 | Cc1ccc(Cc2nsc(N3CCN(S(=O)(=O)c4ccc(Cl)cc4)CC3)n2)cc1 [compound 66, 1-[4-chlorophenylsulfonyl]-4-[3-(4-methylbenzyl)-1,2,4-thiadiazol-5-yl]piperazine] | – | 81
15 | Cc1ccc(Cc2nsc(N3CCN(C(=O)c4cccc(F)c4)C(C)C3)n2)cc1 (stereo not drawn) [compound 156, 1-(3-fluorobenzoyl)-4-[3-(4-methylbenzyl)-1,2,4-thiadiazol-5-yl]-2-methylpiperazine] | 1.67 | 86
16 | O=S(=O)(c1ccc(O)cc1)N1CCN(c2nc(Cc3ccc(F)cc3)ns2)CC1 [compound 217, 1-(4-hydroxybenzenesulfonyl)-4-[3-(4-fluoro-benzyl)-1,2,4-thiadiazol-5-yl]piperazine] | 0.077 | 77
17 | O=C(NCCN1CCN(c2nc(Cc3ccc(F)cc3)ns2)CC1)c1cccc(F)c1 [compound 105, 3-fluoro-N-{2-[4-[3-(4-fluorobenzyl)-1,2,4-thiadiazol-5-yl]piperazin-1-yl]ethyl}benzamide] | – | 115
18 | COc1cccc(Cc2nsc(N3CCN(C(=O)c4ccccc4F)C(C)C3)n2)c1 (stereo not drawn) [compound 115, 1-(2-fluorobenzoyl)-4-[3-(3-methoxybenzyl)-1,2,4-thiadiazol-5-yl]-2-methylpiperazine] | 0.0361 | 75
19 | Cc1ccc(Cc2nsc(N3CCN(S(=O)(=O)c4ccc(C)cc4)C(C)C3)n2)cc1 (stereo not drawn) [compound 50, 1-[4-methylphenylsulfonyl]-4-[3-(4-methylbenzyl)-1,2,4-thiadiazol-5-yl]-2-methylpiperazine] | – | 105
20 | CC1CN(c2nc(Cc3ccc(F)cc3)ns2)CCN1C(=O)c1ccc2c(c1)OCO2 (stereo not drawn) [compound 178, 1-(1,3-benzodioxol-5-ylcarbonyl)-4-[3-(4-fluorobenzyl)-1,2,4-thiadiazol-5-yl]-2-methylpiperazine] | – | 68
21 | CC1CN(c2nc(Cc3ccc(F)cc3)ns2)CCN1S(=O)(=O)c1ccccc1 (stereo not drawn) [compound 47, 1-phenylsulfonyl-4-[3-(4-fluorobenzyl)-1,2,4-thiadiazol-5-yl]-2-methylpiperazine] | – | 129
22 | CCCCCCCCS(=O)(=O)N1CCN(c2nc(Cc3ccc(C)cc3)ns2)CC1 [compound 82, 1-(octylsulfonyl)-4-[3-(4-methylbenzyl)-1,2,4-thiadiazol-5-yl]piperazine] | 1.58 | 50
23 | COc1ccc(C(=O)N2CCN(c3nc(Cc4ccc(F)cc4)ns3)CC2C)c(OC)c1 (stereo not drawn) [compound 136, 1-(2,4-dimethoxybenzoyl)-4-[3-(4-fluorobenzyl)-1,2,4-thiadiazol-5-yl]-2-methylpiperazine] | 0.34 | 83
24 | Cc1ccc(Cc2nsc(N3CCN(C(=O)c4ccc(Cl)cc4)CC3)n2)cc1 [compound 155, 1-(4-chlorobenzoyl)-4-[3-(4-methylbenzyl)-1,2,4-thiadiazol-5-yl]piperazine] | 1.64 | 76
25 | Cc1ccc(C(=O)N2CCN(c3nc(Cc4ccc(F)cc4)ns3)CC2C)cc1 (stereo not drawn) [compound 139, 1-(4-methylbenzoyl)-4-[3-(4-fluorobenzyl)-1,2,4-thiadiazol-5-yl]-2-methylpiperazine] | 0.4 | 87
26 | COc1ccc(S(=O)(=O)N2CCN(c3nc(Cc4ccc(Cl)cc4)ns3)CC2C)cc1 (stereo not drawn) [compound 51, 1-[4-methoxyphenylsulfonyl]-4-[3-(4-chlorobenzyl)-1,2,4-thiadiazol-5-yl]-2-methylpiperazine] | 0.00135 | 94
27 | O=C(c1ccc(F)cc1)N1CCN(c2nc(Cc3ccc(Cl)cc3)ns2)CC1 [compound 153, 1-(4-fluorobenzoyl)-4-[3-(4-chlorobenzyl)-1,2,4-thiadiazol-5-yl]piperazine] | 1.44 | 53
